pIC50: −log10 of the molar value. Counter-ions that a name gives are not always drawn.
Experiments:
TNF-α = assay: LPS-stimulated human monocyte-derived macrophage TNF-α inhibition assay; format: cell-based; settings: 18 hours of culture
Method: Monocyte-derived macrophages stimulated with bacterial lipopolysaccharide (LPS) produce high levels of TNF-α (25.8+4.2 ηg/mL) during 18 hours of culture.

[1] = tested on: D-galactosamine animal model of septic shock; assay: D-galactosamine animal model of septic shock (protection against lethal effects of LPS); format: in vivo; settings: treated about 1 hour before i.p. challenge of D-galactosamine and LPS, by 18 hours after challenge, test compound 100 mg/kg i.p.

Row | SMILES | pIC50 (TNF-α; monocyte-derived macrophages from human peripheral blood, LPS-stimulated, dose response 100 μM-0.1 μM, read-out: IC50 for inhibiting TNF-α levels) | protection ([1]; mice) | mice killed [1] | inhibition at 50 µM (TNF-α; Homo sapiens, at 50 μM, LPS-stimulated monocyte-derived macrophages, read-out: inhibition of TNF-α levels)
1 | Nc1ncnc2c1ncn2[C@H]1CC[C@H]2[C@@H]1CC[C@H]2O (racemic) [(±)-Exo-2-adenyl-endo-6-hydroxybicyclo[3,3,0]octane Dihydrochloride] | 6.84 | 100% | 0 out of 8 | 
2 | CC(=O)CCCCn1c(=O)c2c(ncn2C)n(C)c1=O [Pentoxifylline, reference compound] |  |  |  | 73.5%

— patent US6420373B1, “9-N-Bicyclic nuceoside agents useful as selective inhibitors of proinflammatory cytokines” (Merrell Pharmaceuticals Inc., priority 1993, dated 2002)
